Results published in PubChem BioAssay (NCI).
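Where inhibition never reached the appropriate level, the endpoint shown equals the highest concentration tested. Otherwise, values were interpolated linearly from a five-concentration, 48-hour dose response in 96-well plates. The concentration for full growth arrest is given as TGI.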

Legend:
Assay in all cases: NCI-60 cell line screen, 48 h
NCI-H460 lung = system: NCI-H460 lung
SK-OV-3 ovarian = system: SK-OV-3 ovarian
SW-620 colon = system: SW-620 colon
KM20L2 colon = system: KM20L2 colon
K-562 leukemia = system: K-562 leukemia
OVCAR-8 ovarian = system: OVCAR-8 ovarian
SK-MEL-5 melanoma = system: SK-MEL-5 melanoma
HCT-15 colon = system: HCT-15 colon
M19-MEL melanoma = system: M19-MEL melanoma
CCRF-CEM leukemia = system: CCRF-CEM leukemia
MOLT-4 leukemia = system: MOLT-4 leukemia
CAKI-1 renal = system: CAKI-1 renal
SF-268 CNS = system: SF-268 CNS
EKVX NSCLC = system: EKVX NSCLC
SF-539 CNS = system: SF-539 CNS
MALME-3M melanoma = system: MALME-3M melanoma
HOP-62 NSCLC = system: HOP-62 NSCLC
DMS 273 small cell lung = system: DMS 273 small cell lung
HCC-2998 colon = system: HCC-2998 colon
SK-MEL-28 melanoma = system: SK-MEL-28 melanoma
DLD-1 colon = system: DLD-1 colon
SK-MEL-2 melanoma = system: SK-MEL-2 melanoma
U251 CNS = system: U251 CNS
TK-10 renal = system: TK-10 renal
UO-31 renal = system: UO-31 renal
UACC-257 melanoma = system: UACC-257 melanoma
A498 renal = system: A498 renal
786-0 renal = system: 786-0 renal
UACC-62 melanoma = system: UACC-62 melanoma
SNB-75 CNS = system: SNB-75 CNS
NCI-H226 lung = system: NCI-H226 lung
SNB-19 CNS = system: SNB-19 CNS
NCI-H23 lung = system: NCI-H23 lung
LXFL 529 NSCLC = system: LXFL 529 NSCLC
HT29 colon = system: HT29 colon
COLO 205 colon = system: COLO 205 colon
OVCAR-3 ovarian = system: OVCAR-3 ovarian
DMS 114 small cell lung = system: DMS 114 small cell lung
HCT-116 colon = system: HCT-116 colon
SN12C renal = system: SN12C renal
A549 NSCLC = system: A549 NSCLC
HOP-92 NSCLC = system: HOP-92 NSCLC
OVCAR-4 ovarian = system: OVCAR-4 ovarian
NCI-H522 lung = system: NCI-H522 lung
LOX IMVI melanoma = system: LOX IMVI melanoma
SF-295 CNS = system: SF-295 CNS
ACHN renal = system: ACHN renal
M14 melanoma = system: M14 melanoma
HL-60(TB) leukemia = system: HL-60(TB) leukemia
KM12 colon = system: KM12 colon
SNB-78 CNS = system: SNB-78 CNS
RPMI-8226 leukemia = system: RPMI-8226 leukemia
XF 498 CNS = system: XF 498 CNS
OVCAR-5 ovarian = system: OVCAR-5 ovarian
RXF 393 renal = system: RXF 393 renal
IGROV1 ovarian = system: IGROV1 ovarian
HOP-18 NSCLC = system: HOP-18 NSCLC

`Cc1c(/C=N/NC(=O)c2cc(Br)cc(Br)c2O)c(=O)n(-c2ccccc2)n1C` was tested, and the TGI (NCI-H460 lung) was greater than 100 µM, the TGI (SK-OV-3 ovarian) was greater than 100 µM and the TGI (SW-620 colon) was greater than 100 µM. The TGI (KM20L2 colon) was greater than 100 µM, the TGI (K-562 leukemia) was greater than 100 µM and the TGI (OVCAR-8 ovarian) was greater than 100 µM. The TGI (SK-MEL-5 melanoma) was greater than 100 µM, the TGI (HCT-15 colon) was greater than 100 µM and the TGI (M19-MEL melanoma) was greater than 100 µM. The TGI (CCRF-CEM leukemia) was greater than 100 µM, the TGI (MOLT-4 leukemia) was greater than 100 µM and the TGI (CAKI-1 renal) was 94.2 µM. For the same compound, the TGI (SF-268 CNS) was greater than 100 µM, the TGI (EKVX NSCLC) was greater than 100 µM and the TGI (SF-539 CNS) was greater than 100 µM. The TGI (MALME-3M melanoma) was greater than 100 µM, the TGI (HOP-62 NSCLC) was greater than 100 µM and the TGI (DMS 273 small cell lung) was greater than 100 µM. For the same compound, the TGI (HCC-2998 colon) was greater than 100 µM, the TGI (SK-MEL-28 melanoma) was 49.8 µM and the TGI (DLD-1 colon) was greater than 100 µM. The TGI (SK-MEL-2 melanoma) was greater than 100 µM, the TGI (U251 CNS) was greater than 100 µM and the TGI (TK-10 renal) was greater than 100 µM. For the same compound, the TGI (UO-31 renal) was greater than 100 µM, the TGI (UACC-257 melanoma) was greater than 100 µM and the TGI (A498 renal) was greater than 100 µM. The TGI (786-0 renal) was greater than 100 µM, the TGI (UACC-62 melanoma) was 41.7 µM and the TGI (SNB-75 CNS) was greater than 100 µM. The TGI (NCI-H226 lung) was greater than 100 µM, the TGI (SNB-19 CNS) was greater than 100 µM and the TGI (NCI-H23 lung) was greater than 100 µM. The TGI (LXFL 529 NSCLC) was greater than 100 µM, the TGI (HT29 colon) was greater than 100 µM and the TGI (COLO 205 colon) was greater than 100 µM. It also gave a TGI (OVCAR-3 ovarian) of 95.7 µM, a TGI (DMS 114 small cell lung) of 88.8 µM and a TGI (HCT-116 colon) greater than 100 µM. It also gave a TGI (SN12C renal) greater than 100 µM, a TGI (A549 NSCLC) greater than 100 µM and a TGI (HOP-92 NSCLC) greater than 100 µM. For the same compound, the TGI (OVCAR-4 ovarian) was greater than 100 µM, the TGI (NCI-H522 lung) was greater than 100 µM and the TGI (LOX IMVI melanoma) was greater than 100 µM. It also gave a TGI (SF-295 CNS) greater than 100 µM, a TGI (ACHN renal) greater than 100 µM and a TGI (M14 melanoma) greater than 100 µM. For the same compound, the TGI (HL-60(TB) leukemia) was 5.97 µM, the TGI (KM12 colon) was greater than 100 µM and the TGI (SNB-78 CNS) was greater than 100 µM. It also gave a TGI (RPMI-8226 leukemia) greater than 100 µM, a TGI (XF 498 CNS) of 37.9 µM and a TGI (OVCAR-5 ovarian) greater than 100 µM.
Work on `O=C(CSc1nnc(-c2ccc(N=Cc3ccc(Cl)cc3)cc2)o1)Nc1ccc(Cl)cc1Cl` yielded a TGI (NCI-H460 lung) greater than 100 µM, a TGI (SK-OV-3 ovarian) of 76.7 µM and a TGI (SW-620 colon) greater than 100 µM. For the same compound, the TGI (KM20L2 colon) was greater than 100 µM, the TGI (K-562 leukemia) was greater than 100 µM and the TGI (OVCAR-8 ovarian) was 83.7 µM. It also gave a TGI (RXF 393 renal) greater than 100 µM, a TGI (SK-MEL-5 melanoma) of 63.2 µM and a TGI (HCT-15 colon) of 52.8 µM. It also gave a TGI (M19-MEL melanoma) of 88.5 µM, a TGI (CCRF-CEM leukemia) greater than 100 µM and a TGI (MOLT-4 leukemia) of 66 µM. For the same compound, the TGI (CAKI-1 renal) was greater than 100 µM, the TGI (SF-268 CNS) was 64.9 µM and the TGI (EKVX NSCLC) was greater than 100 µM. For the same compound, the TGI (SF-539 CNS) was 51.1 µM, the TGI (MALME-3M melanoma) was 47.5 µM and the TGI (HOP-62 NSCLC) was 74.5 µM. It also gave a TGI (DMS 273 small cell lung) of 88.7 µM, a TGI (HCC-2998 colon) greater than 100 µM and a TGI (SK-MEL-28 melanoma) of 74.6 µM. It also gave a TGI (DLD-1 colon) of 60.5 µM, a TGI (SK-MEL-2 melanoma) of 47.3 µM and a TGI (IGROV1 ovarian) of 58.7 µM. It also gave a TGI (U251 CNS) of 69.9 µM, a TGI (TK-10 renal) greater than 100 µM and a TGI (UO-31 renal) of 98.7 µM. For the same compound, the TGI (UACC-257 melanoma) was 71.1 µM, the TGI (A498 renal) was greater than 100 µM and the TGI (786-0 renal) was 51.8 µM. It also gave a TGI (UACC-62 melanoma) of 60.3 µM, a TGI (SNB-75 CNS) of 72.7 µM and a TGI (NCI-H226 lung) of 58.2 µM. It also gave a TGI (SNB-19 CNS) of 85 µM, a TGI (NCI-H23 lung) of 59.3 µM and a TGI (LXFL 529 NSCLC) of 96.9 µM. For the same compound, the TGI (HT29 colon) was 60.5 µM, the TGI (COLO 205 colon) was 78 µM and the TGI (HCT-116 colon) was 38.1 µM. It also gave a TGI (SN12C renal) of 49 µM, a TGI (A549 NSCLC) greater than 100 µM and a TGI (HOP-92 NSCLC) of 50.5 µM. For the same compound, the TGI (OVCAR-4 ovarian) was 88 µM, the TGI (NCI-H522 lung) was 85.9 µM and the TGI (SF-295 CNS) was 68.1 µM. The TGI (ACHN renal) was greater than 100 µM, the TGI (M14 melanoma) was 36.1 µM and the TGI (HL-60(TB) leukemia) was greater than 100 µM. It also gave a TGI (HOP-18 NSCLC) of 39.8 µM, a TGI (KM12 colon) of 72.4 µM and a TGI (SNB-78 CNS) greater than 100 µM. The TGI (RPMI-8226 leukemia) was greater than 100 µM, the TGI (XF 498 CNS) was 47.9 µM and the TGI (OVCAR-5 ovarian) was greater than 100 µM.
